Data as given in article PMC9645260, “Small-molecule inhibitors of P-Rex guanine-nucleotide exchange factors” (Small GTPases, 2022).

What was measured:
[1] = tested on: primary mouse neutrophils; experiment: Neutrophil ROS production, fMLP-stimulated; format: cell-based; conditions: 10 µM fMLP
Protocol: Prex^−/− mice (Prex1^−/−Prex2^−/−) with general P-Rex deficiency were described previously and were compared to Prex^+/+ (Prex1^+/+Prex2^+/+) control mice on the same genetic background (C57Bl6/129Ola backcrossed seven times to C57Bl6). Mice were group-housed (up to 5) under specific opportunistic pathogen-free isolator conditions in Babraham’s small animal barrier facility that uses 12 h light/dark cycles with dusk and dawn settings, and were fed chow diet and water ad libitum. Mice from both sexes were used for experiments, at young-adult age (between 8 and 14 weeks), and were sex- and age-matched between genotypes within experiments. […]
Mature primary neutrophils were isolated from the bone marrow of age- and sex-matched Prex^+/+ and Prex^−/− mice freshly each day at 4°C, using Percoll^Plus (GE Healthcare) gradient, as described, using endotoxin-free media throughout. Isolated neutrophils were 70–90% pure, as assessed by KwikDiff staining of cytospins. ROS production was measured by real-time chemiluminescence assay as described, except that neutrophils were incubated with PREX-in1 before the assay. […] Real-time ROS production was recorded in a Berthold MicroLumat Plus luminometer (Berthold Technologies) at 37°C, for 2.5 min with fMLP stimulation or for 10 min with PMA stimulation. […]

[2] = tested on: PAE cells expressing eGFP-P-Rex1; experiment: PAE cell morphology after PDGF stimulation; format: cell-based, pig; conditions: 1 µM for 15 min
Protocol: Pig aortic endothelial (PAE) cells, which stably overexpress PDGF receptor beta, were grown at 37°C in a humidified 5% CO2 atmosphere in Ham’s F-12 medium with L-glutamine (PAA) supplemented with 10% FBS, 100 units/ml penicillin and 100 µg/ml streptomycin (complete medium). Cells were passaged by tryptic digest 1:4 approximately every 2 days. PAE cells were transfected with eGFP-P-Rex1 by electroporation as described, resuspended in complete medium without antibiotics and plated onto sterile 22 mm glass coverslips in 6-well plates. After 12 h, cells were washed twice in Ham’s F-12 and serum starved in Ham’s F-12 containing 1% fatty acid-free BSA) for 8 h. PREX-in1 was added to the medium to a concentration of 1 µM, or cells were mock-treated with vehicle control (0.05% DMSO), for 15 min at 37°C. Cells were stimulated with 10 ng/ml PDGF for 10 min, or were mock-stimulated, and then fixed in 4% paraformaldehyde, 50 mM Pipes pH 6.8, 1 mM EGTA, 1 mM MgCl2 for 15 min at RT. Cells were washed in PBS, permeabilized for 10 min in PBS containing 0.2% Triton X-100, washed twice in PBS and once in PBS, 0.1% BSA. The F-actin cytoskeleton was stained by incubating samples with TRITC-Phalloidin (Sigma P1951) in PBS, 0.1% BSA for 45 min at RT in the dark. Coverslips were washed twice in PBS, rinsed once in water, and mounted onto slides using Aqua Polymount (Polysciences, Inc.). Samples were imaged using an AxioImager D2 fluorescence microscope (Zeiss, ×200 magnification), taking 15–20 representative images for each duplicate coverslip. Images were analysed blinded to experimental design using ImageJ, for both manual and automated analysis. Using manual analysis, each cell was assigned to a morphology category (basal, with lamellipodia and membrane ruffles, spread with ruffles). With automated analysis, the surface area and circularity of all cells were quantified using the ‘Set Measurements’ analysis tools of ImageJ after assigning a mask to each cell. To determine the proportion of spread cells, cells with a surface area more than 50% larger than the mean under basal conditions (1246 μm^2) were considered spread. eGFP-P-Rex1 expressing cells were compared to non-green fluorescent cells on the same coverslip.

COc1ccc(-c2[nH]nc3c2C(c2ccc(-c4ccc(Cl)cc4)o2)C(C#N)=C(N)O3)cc1 (stereo not drawn) [PREX-in1, 6-amino-4-[5-(4-chlorophenyl)-2-furyl]-3-(4-methoxyphenyl)-2,4-dihydropyrano[2,3-c]pyrazole-5-carbonitrile]
inhibition at 1 µM ([1]; Mus musculus, Neutrophil, 7 min, Prex+/+ neutrophils, 1 µM for 7 min, read-out: inhibition of ROS production overall): 50%
effect on ROS response ([1]; Prex-/- neutrophils, 1 µM): did not affect
morphology of mock-transfected cells [2]: did not affect the morphology
P-Rex1 dependent spreading of PDGF-stimulated cells ([2]; 10 ng/ml PDGF): did inhibit
cell circularity ([2]; automated analysis): lack of effect
proportion of cells with lamellipodia or membrane ruffles ([2]; manual analysis): did not affect the proportion of cells with lamellipodia or membrane ruffles
